As a reminder, the IC50 is the concentration that inhibits the measured activity by half.

Common to all, as to type: biochemical
The target in assay [1] is T1, recombinant human MAO-B (monoamine oxidase-B) (Homo sapiens, UniProt P27338).
T1 construct: purchased Sigma-Aldrich
T1 sequence (P27338 1-520): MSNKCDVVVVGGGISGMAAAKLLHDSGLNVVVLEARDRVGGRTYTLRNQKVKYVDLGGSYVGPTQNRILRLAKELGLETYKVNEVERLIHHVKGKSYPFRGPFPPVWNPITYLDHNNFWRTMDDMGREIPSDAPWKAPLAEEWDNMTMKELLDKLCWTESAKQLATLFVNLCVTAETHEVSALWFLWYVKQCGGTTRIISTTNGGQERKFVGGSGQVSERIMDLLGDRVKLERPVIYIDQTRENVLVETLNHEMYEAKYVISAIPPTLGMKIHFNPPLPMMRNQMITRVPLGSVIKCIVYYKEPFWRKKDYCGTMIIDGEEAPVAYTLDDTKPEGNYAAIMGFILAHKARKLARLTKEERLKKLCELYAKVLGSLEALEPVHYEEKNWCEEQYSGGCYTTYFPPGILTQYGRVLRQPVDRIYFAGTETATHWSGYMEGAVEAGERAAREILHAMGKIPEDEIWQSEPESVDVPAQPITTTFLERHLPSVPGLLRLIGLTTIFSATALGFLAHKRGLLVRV
Briefly: Activity evaluation on recombinant human MAO-B (Amplex Red/HRP-coupled assay, 1 mM benzylamine substrate). The following applies: read-out: Inhibitory Activity (IC50, nM) MAO-B. In a few lines: (§1)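 8-pt 1:3 dilution series, final DMSO <1%; 30 min 37 °C preincubation w/ enzyme, 50 mM Na phosphate pH 7.4; + 200 uM Amplex Red, 1 U/mL HRP, substrate (MAO-A tyramine 0.5 mM; MAO-B benzylamine 1 mM; DAO putrescine 1 mM); fluor. rate 544/590 nm, 1-2 h; 4-param IC50.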

For assay [2], the target named is T2, recombinant human DAO (diamine oxidase) (Homo sapiens, UniProt P19801).
T2 construct: purchased R&D systems
T2 sequence (P19801 20-751): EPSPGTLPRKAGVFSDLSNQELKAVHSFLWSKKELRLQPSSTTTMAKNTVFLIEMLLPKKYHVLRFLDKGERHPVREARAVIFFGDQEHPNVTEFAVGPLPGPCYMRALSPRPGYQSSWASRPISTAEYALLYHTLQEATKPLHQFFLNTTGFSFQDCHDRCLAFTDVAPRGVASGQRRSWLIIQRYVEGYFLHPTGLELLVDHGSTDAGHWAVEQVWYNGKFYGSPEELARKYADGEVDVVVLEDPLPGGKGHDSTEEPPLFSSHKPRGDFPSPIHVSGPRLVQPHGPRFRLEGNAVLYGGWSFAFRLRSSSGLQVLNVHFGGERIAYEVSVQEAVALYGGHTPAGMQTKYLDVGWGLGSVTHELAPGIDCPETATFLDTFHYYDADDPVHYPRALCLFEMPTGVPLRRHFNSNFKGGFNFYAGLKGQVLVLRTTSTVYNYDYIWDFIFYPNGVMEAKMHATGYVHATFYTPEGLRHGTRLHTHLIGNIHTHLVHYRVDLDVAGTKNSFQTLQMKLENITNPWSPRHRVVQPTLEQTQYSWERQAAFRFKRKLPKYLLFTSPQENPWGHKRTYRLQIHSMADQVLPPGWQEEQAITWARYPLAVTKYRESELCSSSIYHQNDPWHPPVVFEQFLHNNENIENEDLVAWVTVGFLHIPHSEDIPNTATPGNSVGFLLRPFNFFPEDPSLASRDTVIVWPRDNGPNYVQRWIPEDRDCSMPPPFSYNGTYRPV
Briefly: Activity evaluation on recombinant human DAO (Amplex Red/HRP-coupled assay, 1 mM putrescine substrate). The note with it: read-out: Inhibitory Activity (IC50, nM) DAO. In a few lines: as §1

In a further assay the target is T3, recombinant human VAP-1 (Homo sapiens, UniProt Q16853).
T3 construct: purchased R&D systems
T3 sequence (Q16853 1-763): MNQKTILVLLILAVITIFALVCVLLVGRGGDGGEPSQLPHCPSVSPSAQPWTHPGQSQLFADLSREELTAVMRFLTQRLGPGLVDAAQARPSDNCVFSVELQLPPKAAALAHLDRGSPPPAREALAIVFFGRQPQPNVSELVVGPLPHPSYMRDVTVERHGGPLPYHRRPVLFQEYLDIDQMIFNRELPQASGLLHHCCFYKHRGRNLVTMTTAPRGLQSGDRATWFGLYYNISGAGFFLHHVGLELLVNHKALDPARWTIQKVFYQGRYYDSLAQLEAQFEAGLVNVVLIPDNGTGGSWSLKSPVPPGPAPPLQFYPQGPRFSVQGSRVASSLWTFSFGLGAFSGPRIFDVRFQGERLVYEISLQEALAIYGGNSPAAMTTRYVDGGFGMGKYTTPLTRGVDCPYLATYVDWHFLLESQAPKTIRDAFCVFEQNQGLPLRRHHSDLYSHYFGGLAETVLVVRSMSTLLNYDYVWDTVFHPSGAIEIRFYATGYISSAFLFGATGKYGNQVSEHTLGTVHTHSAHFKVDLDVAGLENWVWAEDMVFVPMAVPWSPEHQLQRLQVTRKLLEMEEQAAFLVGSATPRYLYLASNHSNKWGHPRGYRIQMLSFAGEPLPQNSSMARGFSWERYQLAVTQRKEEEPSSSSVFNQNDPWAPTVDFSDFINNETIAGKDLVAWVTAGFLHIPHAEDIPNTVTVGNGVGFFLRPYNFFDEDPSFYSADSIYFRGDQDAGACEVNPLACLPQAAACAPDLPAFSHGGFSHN
Description: Activity evaluation on recombinant human VAP-1 (Amplex Red/HRP-coupled hydrogen peroxide assay, benzylamine substrate). The note with it: read-out: Inhibitory Activity (IC50, nM) human VAP-1. In a few lines:
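Hydrogen peroxide from benzylamine (1 mM) oxidation by human recombinant VAP-1 detected via HRP-coupled Amplex Red (200 uM) fluorescence, kinetic over 1–2 h. Enzyme and compound preincubated 30 min at 37 °C, pH 7.4 phosphate; 8-point dose response, signal-rate decrease versus DMSO control fitted to four-parameter logistic for IC50.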

In assay [3] the target is T4, recombinant human MAO-A (monoamine oxidase-A) (Homo sapiens, UniProt P21397).
T4 construct: purchased Sigma-Aldrich
T4 sequence (P21397 1-527): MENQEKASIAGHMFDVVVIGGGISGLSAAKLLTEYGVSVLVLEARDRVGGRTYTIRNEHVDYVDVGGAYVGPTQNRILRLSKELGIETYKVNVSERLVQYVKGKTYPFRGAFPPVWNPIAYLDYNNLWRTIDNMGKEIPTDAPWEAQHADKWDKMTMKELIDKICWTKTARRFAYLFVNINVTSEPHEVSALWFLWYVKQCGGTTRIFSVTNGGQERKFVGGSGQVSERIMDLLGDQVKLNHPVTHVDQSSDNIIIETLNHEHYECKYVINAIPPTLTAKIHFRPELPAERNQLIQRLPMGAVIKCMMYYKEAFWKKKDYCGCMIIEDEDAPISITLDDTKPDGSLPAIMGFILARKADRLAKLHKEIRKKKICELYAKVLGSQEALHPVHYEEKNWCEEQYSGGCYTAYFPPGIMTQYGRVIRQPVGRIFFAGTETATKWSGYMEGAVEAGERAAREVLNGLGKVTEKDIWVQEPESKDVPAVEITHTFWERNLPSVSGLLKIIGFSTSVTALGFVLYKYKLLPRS
Briefly: Activity evaluation on recombinant human MAO-A (Amplex Red/HRP-coupled assay, 0.5 mM tyramine substrate). The following applies: read-out: Inhibitory Activity (IC50, nM) MAO-A. In a few lines: as §1

[4] abbreviates: recombinant human VAP-1, benzylamine substrate.
The mark [5] stands for this setting: recombinant human VAP-1, 30 min preincubation at 37° C., 1 mM benzylamine.

The structures appear in SMILES notation. Structures can show the parent of a compound that is named as a salt. Where two headings read alike, the source gives them in different places.

Regarding `NCC(Cn1ncn(Cc2cc(-c3ccc4c(c3)CCC(=O)N4)cs2)c1=O)=C(F)F` [Example 192, 6-[5-[[1-[2-(aminomethyl)-3,3-difluoro-allyl]-5-oxo-1,2,4-triazol-4-yl]methyl]-3-thienyl]-3,4-dihydro-1H-quinolin-2-one Trifluoroacetate], the IC50 was 56000 nM in assay [1] (1 mM benzylamine substrate), 22000 nM in assay [2] (1 mM putrescine substrate), 0.4 nM on recombinant human VAP-1 (setting [4]) and over 100000 nM in assay [3] (0.5 mM tyramine substrate).
As to `Cc1cc(-c2ccc(C(F)(F)F)nc2)sc1Cn1cnn(CC(CN)=C(F)F)c1=O` [Example 156, 2-[2-(aminomethyl)-3,3-difluoro-allyl]-4-[[3-methyl-5-[6-(trifluoromethyl)-3-pyridyl]-2-thienyl]methyl]-1,2,4-triazol-3-one Trifluoroacetate], the half-maximal inhibitory concentration (IC50) in assay [1] (1 mM benzylamine) was 17000 nM; in assay [2] (1 mM putrescine) it was 9100 nM; on recombinant human VAP-1 (setting [5]) it was 3.2 nM; in assay [3] (0.5 mM tyramine) it was over 100000 nM.
Turning to `Cc1cc(-c2cccc(Cn3cnn(CC(CN)=C(F)F)c3=O)c2)cc2c1NC(=O)CC2` [Example 275, 6-[3-[[1-[2-(aminomethyl)-3,3-difluoro-allyl]-5-oxo-1,2,4-triazol-4-yl]methyl]phenyl]-8-methyl-3,4-dihydro-1H-quinolin-2-one Trifluoroacetate], the IC50 in assay [1] (1 mM benzylamine substrate) was 25400 nM; in assay [2] (1 mM putrescine substrate) it was 5160 nM; on recombinant human VAP-1 (setting [4]), 0.9 nM; in assay [3] (0.5 mM tyramine substrate), over 100000 nM.
As to `CN1C(=O)CCc2cc(-c3cccc(-n4cnn(CC(CN)=C(F)F)c4=O)n3)ccc21` [Example 52, 6-[6-[1-[2-(aminomethyl)-3,3-difluoro-allyl]-5-oxo-1,2,4-triazol-4-yl]-2-pyridyl]-1-methyl-3,4-dihydroquinolin-2-one Trifluoroacetate], the IC50 in assay [1] (1 mM benzylamine) was 23000 nM; in assay [2] (1 mM putrescine), 300 nM; at recombinant human VAP-1 (setting [5]), 0.9 nM; in assay [3] (0.5 mM tyramine), over 100000 nM.
In the same order, the values of `Cc1cc(Br)ncc1-n1cnn(CC(CN)=C(F)F)c1=O` [Example 12, 2-[2-(aminomethyl)-3,3-difluoro-allyl]-4-(6-bromo-4-methyl-3-pyridyl)-1,2,4-triazol-3-one Trifluoroacetate] are over 10000 nM, 55000 nM, 43 nM and over 100000 nM.
In the case of `CCn1cc(-c2ccccc2Cn2cnn(CC(CN)=C(F)F)c2=O)ccc1=O` [Example 285, 5-[2-[[1-[2-(aminomethyl)-3,3-difluoro-allyl]-5-oxo-1,2,4-triazol-4-yl]methyl]phenyl]-1-ethyl-pyridin-2-one Trifluoroacetate], the 50% inhibitory concentration (IC50) in assay [1] (1 mM benzylamine substrate) was over 100000 nM; in assay [2] (1 mM putrescine substrate) it was over 100000 nM; at recombinant human VAP-1 (setting [4]), over 100 nM; in assay [3] (0.5 mM tyramine substrate), over 100000 nM.
On to `CN1C(=O)CCc2cc(-c3cnc(-n4cnn(CC(CN)=C(F)F)c4=O)cn3)ccc21` [Example 94, 6-[5-[1-[2-(aminomethyl)-3,3-difluoro-allyl]-5-oxo-1,2,4-triazol-4-yl]pyrazin-2-yl]-1-methyl-3,4-dihydro-1H-quinolin-2-one Trifluoroacetate], for which the IC50 was 860 nM in assay [1] (1 mM benzylamine), 4 nM in assay [2] (1 mM putrescine), 0.2 nM at recombinant human VAP-1 (setting [5]) and over 100000 nM in assay [3] (0.5 mM tyramine).
As for `NCC(Cn1ncn(-c2ccc(-c3ccc(N4CCNCC4)cc3)c(F)c2)c1=O)=C(F)F` [Example 25, 2-[2-(aminomethyl)-3,3-difluoro-allyl]-4-[3-fluoro-4-(4-piperazin-1-ylphenyl)phenyl]-1,2,4-triazol-3-one Ditrifluoroacetate], the concentration for half-maximal inhibition (IC50) in assay [1] (1 mM benzylamine) is over 10000 nM; in assay [2] (1 mM putrescine) it was 1300 nM; at recombinant human VAP-1 (setting [5]) it was 1.7 nM; in assay [3] (0.5 mM tyramine) it was 6280 nM.
Consider `CCn1cc(-c2ccc3sc(Cn4cnn(CC(CN)=C(F)F)c4=O)cc3c2)ccc1=O` [Example 207, 5-[2-[[1-[2-(aminomethyl)-3,3-difluoro-allyl]-5-oxo-1,2,4-triazol-4-yl]methyl]benzothiophen-5-yl]-1-ethyl-pyridin-2-one Trifluoroacetate], for which the IC50 is over 100000 nM in assay [1] (1 mM benzylamine substrate), over 100000 nM in assay [2] (1 mM putrescine substrate), 0.7 nM at recombinant human VAP-1 (setting [4]) and over 100000 nM in assay [3] (0.5 mM tyramine substrate).
As to `NCC(Cn1ncn(-c2cnc(-c3ccc(N4CCNCC4)cc3)cn2)c1=O)=C(F)F` [Example 90, 2-[2-(aminomethyl)-3,3-difluoro-allyl]-4-[5-(4-piperazin-1-ylphenyl)pyrazin-2-yl]-1,2,4-triazol-3-one Ditrifluoroacetate], the IC50 in assay [1] (1 mM benzylamine) is over 100000 nM; in assay [2] (1 mM putrescine) it was 30 nM; on recombinant human VAP-1 (setting [5]), 1.3 nM; in assay [3] (0.5 mM tyramine) it was over 100000 nM.
For the compound `CN(C)c1ccc(-c2cccc(-n3cnn(CC(CN)=C(F)F)c3=O)n2)cn1` [Example 49, 2-[2-(aminomethyl)-3,3-difluoro-allyl]-4-[6-[6-(dimethylamino)-3-pyridyl]-2-pyridyl]-1,2,4-triazol-3-one Trifluoroacetate], the IC50 in assay [1] (1 mM benzylamine) was over 100000 nM; in assay [2] (1 mM putrescine) it was 490 nM; on recombinant human VAP-1 (setting [5]) it was 1.6 nM; in assay [3] (0.5 mM tyramine), over 100000 nM.

The values above are taken from patent US11168073B2, “3,3-difluoroallylamines or salts thereof and pharmaceutical compositions comprising the same” (YUHAN CORPORATION, priority 2018, dated 2021).
